Source: US4426382A, “4-Amino-6,7-dimethoxy-2-piperazinylquinazoline derivatives, their preparation and use” (Sankyo Company Limited, priority 1980, dated 1984)
Counter-ions that a name gives are not always drawn.

System: spontaneously hypertensive rats
Assay: antihypertensive activity: blood pressure after oral administration to conscious spontaneously hypertensive rats
Assay type: in vivo
Conditions: male spontaneously hypertensive rats
Protocol: The animals used in this test were 15 week old male spontaneously hypertensive rats. 3-5 rats were used to test each concentration of each compound. Each animal was treated as follows. […] A polyethylene cannula was then inserted into the abdominal aorta by the method of Weeks and Jones [J. R. Weeks and J. A. Jones, Proc. Soc. […] The other end of the cannula, leading out of the body, was fixed to the neck. One week after the operation, when the animal had recovered from post-operative invasion, this end of the cannula was connected to an apparatus to measure the blood pressure and heart beat directly without the need for any further anesthesia or restraint. The haemomanometer used was an improved type of that originated by Laffan et al. [P. J. Laffan, A. Peterson, S. W. Hitch and C.
The compound under test was suspended at the desired concentration in a 0.3% w/v aqueous solution of carboxymethylcellulose and administered orally in a volume of 2 ml/kg body weight. […] After administration of the sample, the blood pressure and heart beat of each animal were measured for 24 hours at 15 minute intervals.
For purposes of comparison, the same experiment was carried out with various concentrations of the known hypotensive agent, prazosin, in the form of its hydrochloride.
Δmax =Maximum change in blood pressure (mm/Hg) after administration of the compound under test;
Tmax =Time (in hours) after administration of the compound under test required for the blood pressure to obtain a maximum change;
T0.5 max =Time (in hours) after administration of the compound under test for the blood pressure to return to one-half of its maximum value.

Row | SMILES | T0.5 max, time after administration for the blood pressure to return to one-half of its maximum value (dose 3 mg/kg oral) [h] | Tmax, time after administration required for the blood pressure to obtain a maximum change (dose 3 mg/kg oral) [h] | Δmax, maximum change in blood pressure after administration (dose 3 mg/kg oral) [mmHg] | T0.5 max, time after administration for the blood pressure to return to one-half of its maximum value (dose 30 mg/kg oral) [h] | Tmax, time after administration required for the blood pressure to obtain a maximum change (dose 30 mg/kg oral) [h] | Δmax, maximum change in blood pressure after administration (dose 30 mg/kg oral) [mmHg] | other results
1 | COc1cc2nc(N3CCN(C(=O)C=C4CCCCC4)CC3)nc(N)c2cc1OC [31 hydrochloride hydrate] | 10 | 1 to 2 | -25 | 14 | 1 to 2 | -40 | –
2 | COc1cc2nc(N3CCN(C(=O)c4ccc(OC(C)c5ccccc5)cc4)CC3)nc(N)c2cc1OC (stereo not shown) [103 hydrochloride sesquihydrate] | – | – | – | 13 | 5 to 6 | -41 | T0.5 max, time after administration for the blood pressure to return to one-half of its maximum value (dose 10 mg/kg oral): 9.5 h; Tmax, time after administration required for the blood pressure to obtain a maximum change (dose 10 mg/kg oral): 5 to 6 h; Δmax, maximum change in blood pressure after administration (dose 10 mg/kg oral): -30 mmHg
3 | COc1cc2nc(N3CCN(C(=O)c4ccc(OCc5ccccc5)cc4)CC3)nc(N)c2cc1OC [14 hydrochloride dihydrate] | 9.5 | 6 | -18 | 15 | 6 to 7 | -35 | T0.5 max, time after administration for the blood pressure to return to one-half of its maximum value (dose 10 mg/kg oral): 12 h; Tmax, time after administration required for the blood pressure to obtain a maximum change (dose 10 mg/kg oral): 6 to 7 h; Δmax, maximum change in blood pressure after administration (dose 10 mg/kg oral): -29 mmHg
4 | COc1cc2nc(N3CCN(C(=O)C(C)Oc4ccccc4)CC3)nc(N)c2cc1OC (stereo not shown) [25 hydrochloride hemihydrate] | 14 | 1 | -70 | – | – | – | T0.5 max, time after administration for the blood pressure to return to one-half of its maximum value (dose 1 mg/kg oral): 7 h; Tmax, time after administration required for the blood pressure to obtain a maximum change (dose 1 mg/kg oral): 1 h; Δmax, maximum change in blood pressure after administration (dose 1 mg/kg oral): -40 mmHg
5 | COc1cc2nc(N3CCN(C(=O)C=C(C)C)CC3)nc(N)c2cc1OC [Compound No. 4, 4-Amino-2-[4-(3,3-dimethylacryloyl)-1-piperazinyl]-6,7-dimethoxyquinazoline] | – | – | – | 3 | 0.5 | -30 | –
6 | COc1cc2nc(N3CCN(C(=O)C4(c5ccccc5)CC4)CC3)nc(N)c2cc1OC [33 hydrochloride hydrate] | – | – | – | 8.5 | 1 | -50 | –
7 | COc1cc2nc(N3CCN(C(=O)Cc4ccccc4)CC3)nc(N)c2cc1OC [28 hydrochloride hydrate] | 9 | 1 | -30 | 10 | 4 | -50 | –
8 | COc1cc2nc(N3CCN(C(=O)COc4ccccc4)CC3)nc(N)c2cc1OC [27 hydrochloride hydrate] | 8 | 5 | -20 | 8 | 5 | -40 | –
9 | CCCC=CC(=O)N1CCN(c2nc(N)c3cc(OC)c(OC)cc3n2)CC1 [Compound No. 8, 4-Amino-2-[4-(2-hexenoyl)-1-piperazinyl]-6,7-dimethoxyquinazoline] | 4.5 | 0.5 | -35 | 7 | 0.5 | -40 | –
10 | COc1cc2nc(N3CCN(C(=O)[C@@H]4C[C@H]4c4ccccc4)CC3)nc(N)c2cc1OC (relative stereo) [34 hydrochloride hydrate] | 8 | 1 | -33 | – | – | – | T0.5 max, time after administration for the blood pressure to return to one-half of its maximum value (dose 10 mg/kg oral): 12 h; Tmax, time after administration required for the blood pressure to obtain a maximum change (dose 10 mg/kg oral): 2 h; Δmax, maximum change in blood pressure after administration (dose 10 mg/kg oral): -50 mmHg
11 | COc1cc2nc(N3CCN(C(=O)CCc4ccccc4)CC3)nc(N)c2cc1OC [29 hydrochloride hydrate] | 8 | 2 | -30 | 12 | 5 | -45 | –
12 | COc1cc2nc(N3CCN(C(=O)c4ccc(OCc5ccccc5)c(OC)c4)CC3)nc(N)c2cc1OC [94 hydrochloride hemihydrate] | – | – | – | 7 | 5 | -28 | –
13 | CC=CC(=O)N1CCCN(c2nc(N)c3cc(OC)c(OC)cc3n2)CC1 [9 hydrochloride hydrate] | 3.5 | 0.5 | -25 | 5 | 0.75 | -35 | –
14 | CCC=CC(=O)N1CCN(c2nc(N)c3cc(OC)c(OC)cc3n2)CC1 [5 hydrochloride] | – | 0.5 | -40 | – | – | – | T0.5 max, time after administration for the blood pressure to return to one-half of its maximum value (dose 3 mg/kg oral, 3 mg/kg): 7 h; T0.5 max, time after administration for the blood pressure to return to one-half of its maximum value (dose 30 mg/kg oral, 30 mg/kg): 14 h; Tmax, time after administration required for the blood pressure to obtain a maximum change (dose 30 mg/kg oral, 30 mg/kg): 0.75 h; Δmax, maximum change in blood pressure after administration (dose 30 mg/kg oral, 30 mg/kg): -48 mmHg
15 | COc1cc2nc(N3CCN(C(=O)c4ccc(OCc5ccccc5)c(Cl)c4)CC3)nc(N)c2cc1OC [98 hydrochloride hemihydrate] | – | – | – | 8 | 4 | -30 | –
16 | CCC=CCC(=O)N1CCN(c2nc(N)c3cc(OC)c(OC)cc3n2)CC1 [Compound No. 7, 4-Amino-2-[4-(3-hexenoyl)-1-piperazinyl]-6,7-dimethoxyquinazoline] | 7 | 0.5 | -20 | 15 | 0.5 | -25 | –
17 | COc1cc2nc(N3CCN(C(=O)c4ccco4)CC3)nc(N)c2cc1OC [prazosin hydrochloride, prazosin, reference compound] | – | 0.5 | -35 | – | 1 | -50 | –
18 | CC=CC(=O)N1CCN(c2nc(N)c3cc(OC)c(OC)cc3n2)CC1 [1 hydrochloride hydrate] | 8 | 0.25 | -35 | 12 | 0.5 | -40 | –
